Target: T1, Xanthine dehydrogenase/oxidase (Bos taurus, UniProt P80457)
Assay: Inhibition of bovine milk xanthine oxidase using xanthine as substrate assessed as decrease in uric acid formation preincubated for 5 mins
Settings: not given

T1 sequence (P80457 whole entry): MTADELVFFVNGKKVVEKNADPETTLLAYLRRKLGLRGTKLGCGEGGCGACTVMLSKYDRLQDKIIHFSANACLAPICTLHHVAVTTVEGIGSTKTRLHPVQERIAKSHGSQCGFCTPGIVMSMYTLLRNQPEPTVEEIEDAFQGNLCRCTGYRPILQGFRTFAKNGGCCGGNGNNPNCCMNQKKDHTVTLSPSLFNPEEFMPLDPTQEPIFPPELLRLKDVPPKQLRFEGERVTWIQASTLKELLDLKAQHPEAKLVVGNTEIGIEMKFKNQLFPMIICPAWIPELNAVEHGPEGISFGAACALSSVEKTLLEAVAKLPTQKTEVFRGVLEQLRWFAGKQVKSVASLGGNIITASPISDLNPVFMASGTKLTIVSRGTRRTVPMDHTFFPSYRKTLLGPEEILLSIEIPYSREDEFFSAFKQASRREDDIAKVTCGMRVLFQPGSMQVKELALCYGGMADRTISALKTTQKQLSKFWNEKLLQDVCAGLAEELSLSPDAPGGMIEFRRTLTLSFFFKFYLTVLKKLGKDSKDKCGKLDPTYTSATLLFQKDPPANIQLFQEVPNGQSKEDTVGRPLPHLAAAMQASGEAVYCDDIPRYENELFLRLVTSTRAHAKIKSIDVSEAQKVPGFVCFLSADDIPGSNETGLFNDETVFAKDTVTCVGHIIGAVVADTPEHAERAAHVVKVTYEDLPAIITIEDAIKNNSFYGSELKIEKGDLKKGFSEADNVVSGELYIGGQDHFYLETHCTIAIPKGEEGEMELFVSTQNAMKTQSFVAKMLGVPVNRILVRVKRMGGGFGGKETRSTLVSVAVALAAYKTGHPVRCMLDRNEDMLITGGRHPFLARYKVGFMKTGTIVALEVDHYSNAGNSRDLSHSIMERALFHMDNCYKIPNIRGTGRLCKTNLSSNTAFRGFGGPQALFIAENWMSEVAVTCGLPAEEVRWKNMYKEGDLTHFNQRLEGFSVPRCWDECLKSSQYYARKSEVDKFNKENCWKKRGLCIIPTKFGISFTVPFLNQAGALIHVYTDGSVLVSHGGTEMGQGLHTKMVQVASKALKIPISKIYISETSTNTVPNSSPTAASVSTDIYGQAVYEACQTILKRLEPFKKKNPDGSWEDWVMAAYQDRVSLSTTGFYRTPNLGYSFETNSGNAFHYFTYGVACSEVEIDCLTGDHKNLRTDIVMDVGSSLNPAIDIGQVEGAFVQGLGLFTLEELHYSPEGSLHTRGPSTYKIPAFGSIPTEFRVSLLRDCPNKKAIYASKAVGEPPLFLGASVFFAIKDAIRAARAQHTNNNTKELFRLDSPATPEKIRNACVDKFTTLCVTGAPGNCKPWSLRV

Row | SMILES | IC50 [µM]
1 | COC(=O)C1=C(C)Oc2ccc3ccccc3c2C1c1ccc[nH]1 (stereo unspecified) | 6.23
2 | CCOC(=O)C1=C(C)Oc2ccc3ccccc3c2C1c1cccs1 (stereo unspecified) | 11.4
3 | COC(=O)C1=C(C)Oc2ccc3ccccc3c2C1c1ccco1 (stereo unspecified) | 10
4 | CCOC(=O)C1=C(C)Oc2ccc3ccccc3c2C1c1ccco1 (stereo unspecified) | 13.2
5 | COC(=O)C1=C(C)Oc2ccc3ccccc3c2C1c1sccc1C (stereo unspecified) | 7.31

The remaining lines, values ahead:

Row | IC50 [µM] | SMILES
6 | 4 | COC(=O)C1=C(C)Oc2ccc3ccccc3c2C1c1cccs1 (stereo unspecified)
7 | 44.4 | CCOC(=O)C1=C(C)Oc2ccc3ccccc3c2C1c1ccccc1 (stereo unspecified)
8 | 17 | COC(=O)C1=C(C)Oc2ccc3ccccc3c2C1c1ccc(OC)c(OC)c1 (stereo unspecified)
9 | 24 | COC(=O)C1=C(C)Oc2ccc3ccccc3c2C1c1ccc(O)cc1 (stereo unspecified)
10 | 36.5 | COC(=O)C1=C(C)Oc2ccc3ccccc3c2C1c1ccc(OC)cc1 (stereo unspecified)

Target: T1, Xanthine dehydrogenase/oxidase
Assay: Inhibition of bovine milk xanthine oxidase using xanthine as substrate assessed as decrease in uric acid formation at 50 uM preincubated for 5 mins
Settings: cattle

Row | SMILES | inhibition at 50 µM [%]
11 | COC(=O)C1=C(C)Oc2ccc3ccccc3c2C1c1ccc[nH]1 (stereo unspecified) | 94.5
12 | CCOC(=O)C1=C(C)Oc2ccc3ccccc3c2C1c1cccs1 (stereo unspecified) | 89
13 | COC(=O)C1=C(C)Oc2ccc3ccccc3c2C1c1ccco1 (stereo unspecified) | 92.5
14 | CCOC(=O)C1=C(C)Oc2ccc3ccccc3c2C1c1ccco1 (stereo unspecified) | 88.6
15 | CCOC(=O)C1=C(C)Oc2ccc3ccccc3c2C1c1ccc(OC)c(OC)c1 (stereo unspecified) | 62.3
16 | COC(=O)C1=C(C)Oc2ccc3ccccc3c2C1c1sccc1C (stereo unspecified) | 93.3
17 | CCOC(=O)C1=C(C)Oc2ccc3ccccc3c2C1/C=C/c1ccccc1 (stereo unspecified) | 11.3
18 | COC(=O)C1=C(C)Oc2ccc3ccccc3c2C1c1cc(OC)c(OC)c(OC)c1 (stereo unspecified) | 50
19 | COC(=O)C1=C(C)Oc2ccc3ccccc3c2C1 | 32
20 | CCOC(=O)C1=C(C)Oc2ccc3ccccc3c2C1c1ccc(Cl)cc1 (stereo unspecified) | 20.9
21 | CCCCCC1C(C(=O)OC)=C(C)Oc2ccc3ccccc3c21 (stereo unspecified) | 58.9
22 | CCOC(=O)C1=C(C)Oc2ccc3ccccc3c2C1c1ccc(OC)c(O)c1 (stereo unspecified) | 64.7
23 | CCOC(=O)C1=C(C)Oc2ccc3ccccc3c2C1c1ccc([N+](=O)[O-])cc1 (stereo unspecified) | 21.4

The next lines start with the values.

Row | inhibition at 50 µM [%] | SMILES
24 | 25 | COC(=O)C1=C(C)Oc2ccc3ccccc3c2C1c1ccc([N+](=O)[O-])cc1 (stereo unspecified)
25 | 58.8 | COC(=O)C1=C(C)Oc2ccc3ccccc3c2C1c1ccccc1OC (stereo unspecified)
26 | 23.9 | COC(=O)C1=C(C)Oc2ccc3ccccc3c2C1c1ccc(Cl)cc1 (stereo unspecified)
27 | 96.6 | COC(=O)C1=C(C)Oc2ccc3ccccc3c2C1c1cccs1 (stereo unspecified)
28 | 65.2 | CCOC(=O)C1=C(C)Oc2ccc3ccccc3c2C1c1ccccc1 (stereo unspecified)
29 | 56.5 | CCOC(=O)C1=C(C)Oc2ccc3ccccc3c2C1c1ccc(OC)cc1 (stereo unspecified)
30 | 50.5 | CCOC(=O)C1=C(C)Oc2ccc3ccccc3c2C1c1cccc(Oc2ccccc2)c1 (stereo unspecified)
31 | 69.3 | COC(=O)C1=C(C)Oc2ccc3ccccc3c2C1c1ccc(OC)c(O)c1 (stereo unspecified)
32 | 78.2 | COC(=O)C1=C(C)Oc2ccc3ccccc3c2C1c1ccc(OC)c(OC)c1 (stereo unspecified)
33 | 67.5 | COC(=O)C1=C(C)Oc2ccc3ccccc3c2C1c1ccc(O)c(OC)c1 (stereo unspecified)
34 | 72.4 | COC(=O)C1=C(C)Oc2ccc3ccccc3c2C1c1ccc(O)cc1 (stereo unspecified)
35 | 59.6 | COC(=O)C1=C(C)Oc2ccc3ccccc3c2C1c1cccc(Oc2ccccc2)c1 (stereo unspecified)
36 | 68.7 | COC(=O)C1=C(C)Oc2ccc3ccccc3c2C1c1ccc(OC)cc1 (stereo unspecified)

— ChEMBL document CHEMBL3102850, “Microwave assisted synthesis of naphthopyrans catalysed by silica supported fluoroboric acid as a new class of non purine xanthine oxidase inhibitors” (Bioorg Med Chem Lett, 2014)
